{"source": "patent US20060217340A1", "about": "“Methods and products for treating hypertension by modulation of TRPC3 channel activity” (University of Vermont and State Agricultural College, priority 2005, published 2006)", "key": {"TRPC3": {"test_system": "TRPC3", "test": "Western analysis of TRPC3 protein expression in arteries", "assay_type": "cell-based, rat", "experimental": "(§1) Western Analysis. Arterial segments were homogenized in lysis buffer (5 minutes, 4° C.) containing (in mM): 40 CAPS, 1 DL-Dithiothreitol (DTT), 10 EDTA, 15 MgCl2, 115 NaCl, 1 NaOrthovanadate, 1 NaF, 2.5 Urea, and 0.25% deoxychlorate, 10% glycerol, 1% NP-40, 0.2% SDS, and 1:50 mammalian protease inhibitor cocktail (Sigma, St. Louis, Mo., USA). Equal amounts of sample protein were separated on a 10% polyacrylamide gel and transferred to a nitrocellulose membrane. The membranes were exposed to a TRPC3 or TRPC6 polyclonal antibody (anti-rabbit 1:200 dilution, Alomone Labs, Jerusalem, Israel) and a […] (GAPDH) monoclonal antibody (anti-mouse, 1:1000 dilution, Chemicon Labs, Temecula, Calif., USA). Alexa-Fluor 680® goat anti-rabbit (Molecular Probes, Eugene, Oreg., USA) and IRDyeTM800 anti-mouse (Rockland Immunochemicals, Gilbertsville, Pa., USA) were used to fluorescently label the TRPC3 and GAPDH antibodies respectively. The density of signals specific for the TRPC3 and GAPDH bands in a given lane on a membrane were measured after scanning the membrane with an Odyssey® infared imaging system (Li-COR Biosciences, Lincoln, Nebr., USA). Quantified amounts were normalized to a total protein amount lane on the polyacrylamide gel.\nOligodeoxynucleotide Sequences and Reverse Permeabilization. TRPC6 sense and antisense oligodeoxynucleotides (ODN's) were designed as previously described (Welsh et al 2002 Circ Res 90, 248-250) and were as follows: sense, 5′-[…]-3′ (SEQ ID: 3) and 5′-GCACACGCAGCCTCTTCAC-3′ (SEQ ID: 4) antisense, 5′-[…]-3′ (SEQ ID: 5) and 5′-[…]-3′ (SEQ ID: 6). TRPC3 sense and antisense ODN's were designed based on the rat TRPC3 gene (Ohki et al 2000 J Biol Chem 275: 39055-39060) and are as follows: sense, 5′-[…]-3′ (SEQ ID: 7) and 5′-[…]-3′ (SEQ ID: 8); anti-sense, 5′-[…]-3′ (SEQ ID: 9) and 5′-[…]-3′ (SEQ ID: 10). The last five bases on the 5′ and 3′ end were phosphorothioated in order to limit ODN degradation. […]"}, "[1]": {"test_system": "glyceraldehyde dehydrogenase (GAPDH)", "test": "Western analysis of GAPDH protein expression in cerebral artery", "assay_type": "cell-based, rat", "conditions": "3 days organ culture", "experimental": "as §1\nOligodeoxynucleotide Sequences and Reverse Permeabilization. […]"}}, "data": [{"substance": "5′-GAGAACCATGAACTGGAATA-3′ (SEQ ID: 9) and 5′-ACGACCAACACGACCAGACA-3′ (SEQ ID: 10) (phosphorothioate ends, further chemistry not given here) [TRPC3 antisense, antisense ODNs based on the rat TRPC3 gene; last five bases on the 5′ and 3′ end phosphorothioated]", "values": [{"measurement": "TRPC3 expression reduced (Western blots of arterial lysates)", "setting": "TRPC3; TRPC3 antisense compared with sense treated arteries", "value": "~60", "unit": "%"}, {"measurement": "TRPC3 to GAPDH ratio less in antisense compared to sense treated samples", "setting": "TRPC3; after 3 days of organ culture, n=4 each", "value": "42.5±11.4", "unit": "%"}, {"measurement": "effect on the expression of GAPDH", "setting": "[1]", "value": "no effect"}]}]}
